Source: patent US20080089859A1, “ADMINISTRATION OF SLEEP RESTORATIVE AGENTS” (priority 2001, published 2008)
Marks after values point to notes of the source that are not given here.

Legend:
[1] = tested on: rheumatoid arthritis (Ra) and Psoriatic arthritis (PsA) patients; experiment: Open-label retrospective chart analysis of patients starting Etanercept, with sleep/fibromyalgia treatment (Example 1); type: in vivo, human
Text: The effect of sleep disturbance and/or overt fibromyalgia (FM) on Etanercept (ENBREL®, Immunex) efficacy was monitored in an open-label, retrospective chart analysis of rheumatoid arthritis (Ra) and Psoriatic arthritis (PsA) patients starting Etanercept due to inadequate response to prior disease-modifying and steroid treatment. Sixty six (66) consecutive patients (19 males, 47 Females; 39 positive for rheumatoid factor for rheumatoid arthritis, 13 negative for rheumatoid factor for rheumatoid arthritis, 14 having PsA) were treated at a suburban, referral-based rheumatology clinic. The patients were monitored for swollen/tender joints (joint count, JC), fibromyalgia tender point score, restorative sleep quality, and concomitant medication use, before and after adding Etanercept treatment. Concomitant medication use included prednisone, methotrexate, non-steroidal anti-inflammatory drugs (NSAIDS), azothioprine, sulfasalazine, and hydroxychloroquine.
All patients with overt FM and non-restorative sleep were treated with options for fibromyalgia (FM), including Trazodone, Lorazepam, Clonazepam, Carisoprodol, and/or Pramipexole as needed to decrease FM pain and sleep disturbance as previously reported. (Arthritis & Rheumatology 43:9 A1599 (2000); Arthritis & Rheumatology 42:9 A385 (1999); Arthritis & Rheumatology 41:9 A1359 (1998).)
The patient criteria were as follows: The mean arthritis duration was 9.2±1.3 years. Etanercept use was 14±1.5 months. The average age of the patients was 50.5±4.3 years. Their average initial erythrocyte sedimentation rate (ESR) was 22.0±8.0. Previous DMARDs 2.4±0.3. Their initial Joint Count was as follows: PsA 8.3, Ra-8.1, and Ra+13.2 The disease groups were combined: 20 patients had active FM (aFM). 29 never had FM (no FR).

[2] = tested on: rheumatoid arthritis (Ra) and Psoriatic arthritis (PsA) patients; experiment: Study of Example 1 continued to 18 months (Example 2); type: in vivo, human
Text: The study of Example 1 was continued to 18 months. […] Fibromyalgia was a surrogate for a lack of deep (e.g., stage IV) restorative sleep.
JC refers to the number of swollen tender joints.

[3] = tested on: patients with Ankylosing Spondylitis; experiment: Treatment of patients with Ankylosing Spondylitis; type: in vivo, human; details: six patients after lorazepam or pramipexole, off Methotrexate and steroids
Protocol: Six patients with Ankylosing Spondylitis were treated according to the present invention. […] The patients were administered lorazepam 1-2 mg qhs or pramipexole 0.5-3.0 mg qhs.

[4] = tested on: patient with chronic gout; experiment: Treatment of a patient with chronic gout and severe synovitis; type: in vivo, human; details: one patient; colchicine, hydroxychloroquine and Etanercept added together, before sleep agents
Protocol: Adding colchicine, hydroxychloroquine and Etanercept only allowed them to decrease prednisone to 15 mg qd.

[5] = tested on: patients with rheumatoid arthritis; details: cited from earlier work

## Etanercept
[1]; No FM patients
  % Change Joint Count: −93.9 ± 1.9%
  % Change Methotrexate Dose: −89.5 ± 8.4%
  % Change Prednisone Dose: −96.3 ± 4.0%
[1]; No FM patients (29), before 8.0
  Δ Pred., prednisone dose after adding Etanercept: 8.0 → 0.3 mg/d
[1]; No FM patients (29), before 19.1
  Δ MTX, methotrexate dose after adding Etanercept: 19.1 → 2.0 mg/wk
[1]; No FM patients (29), before Etanercept 11.6
  Δ Joint Count, value after adding Etanercept: 11.6 → 0.7
[1]; No FM patients, p 0.019 across groups
  Medication Discontinued: Azathioprine/Sulfasalazine/Hydroxychloroquine (patients): 10/11
[1]; No FM patients, p 0.045 across groups
  Medication Discontinued: NSAIDs (patients): 6/7
[1]; aFM (active fibromyalgia) patients (20), before Etanercept 11.5, M-W P 0.066
  Δ Joint Count, value after adding Etanercept: 11.5 → 5.9 *
[1]; aFM patients
  Medication Discontinued: Azathioprine/Sulfasalazine/Hydroxychloroquine (patients): 4/8
  Medication Discontinued: NSAIDs (patients): 1/13
[1]; aFM patients (20), before 10.3, M-W P 0.1
  Δ Pred., prednisone dose after adding Etanercept: 10.3 → 5.9 # mg/d
[1]; aFM patients (20), before 15.0, M-W P 0.002
  Δ MTX, methotrexate dose after adding Etanercept: 15.0 → 13.3 ** mg/wk
[1]; aFM patients, M-W P 0.001
  % Change Joint Count: −47.8 ± 14.%
  % Change Prednisone Dose: −48.5 ± 15.%
[1]; aFM patients, M-W P < 0.001
  % Change Methotrexate Dose: −11.3 ± 4.5%
[1]; iFM (inactive fibromyalgia) patients (17), before Etanercept 10.1
  Δ Joint Count, value after adding Etanercept: 10.1 → 0.5
[1]; iFM patients
  % Change Joint Count: −95.0 ± 1.9%
  % Change Methotrexate Dose: −100. ± 0.0%
  % Change Prednisone Dose: −94.5 ± 3.6%
  Medication Discontinued: Azathioprine/Sulfasalazine/Hydroxychloroquine (patients): 9/9
  Medication Discontinued: NSAIDs (patients): 4/7
[1]; iFM patients (17), before 7.3
  Δ Pred., prednisone dose after adding Etanercept: 7.3 → 0.4 mg/d
[1]; iFM patients (17), before 19.7
  Δ MTX, methotrexate dose after adding Etanercept: 19.7 → 0.0 mg/wk
[2]; 18 months, Active FM (N 6)
  MTX abs (absolute change of methotrexate use): (6) +0.8 mg
[2]; 18 months, Active FM (N 9)
  Pred abs (absolute change of steroid use): (9) −7.15 mg
[2]; 18 months, Active FM (N 10)
  Joint count abs (absolute change): (10) −10.95
[2]; 18 months, Inactive FM (N 9)
  MTX abs (absolute change of methotrexate use): (9) −20.1 mg
[2]; 18 months, Inactive FM (N 13)
  Pred abs (absolute change of steroid use): (13) −7.92 mg
[2]; 18 months, Inactive FM (N 23)
  Joint count abs (absolute change): (23) −8.98
[2]; 18 months, No FM (N 16), p 0.0002 across groups
  MTX abs (absolute change of methotrexate use): (16) −17.5 mg
[2]; 18 months, No FM (N 19), p 0.8649 across groups
  Pred abs (absolute change of steroid use): (19) −7.32 mg
[2]; 18 months, No FM (N 28), p 0.5685 across groups
  Joint count abs (absolute change): (28) −11.54
[2]; patients converted from active FM to inactive FM, 12 months, study entry 9.1
  JC2, number of swollen tender joints, mean: 4.6 # tender joints
[2]; patients converted from active FM to inactive FM, 12 months, study entry 10.5
  Pred2, Pred used, mean: 5.5 mg
[2]; patients converted from active FM to inactive FM, 12 months, study entry 17.5
  MTX2, methotrexate used, mean: 0 mg
[2]; patients converted from active FM to inactive FM, 18 months, study entry 9.1
  JC3, number of swollen tender joints, mean: 0 # tender joints
[2]; patients converted from active FM to inactive FM, 18 months, study entry 10.5
  Pred3, Pred used, mean: 1.8 mg
[2]; patients converted from active FM to inactive FM, 18 months, study entry 17.5
  MTX3, methotrexate used, mean: 0 mg
[3]
  Disease activity under continued Etanercept: without evidence of active disease
[4]
  Prednisone dose reached: 15 mg qd
[5]
  Patients who may not respond: 15-20%
